Values joined by “and” are separate entries in the source; they are usually repeats but may differ in a detail not shown here. Equal entries are not always repeated. Where two headings read alike, the source gives them in different places.
Legend:
[1] = Experimental rotational energy barrier (thermal racemization, chiral HPLC); format: physicochemical; conditions: 135 °C in xylenes, Eyring equation
Description: (aR)-6 and (aS)-6 were readily separable from one another and racemic iso -6 through the use of a polysaccharide-based chiral column (Diacel IA column) fitted to an automated medium-pressure liquid chromatography unit (Biotage Isolera Prime). Racemization was observable after heating a solution of either enantiopure (aR)- or (aS)-6 at 135 °C in xylenes over a few hours, and the rate of enantiomerization was extrapolated using the Eyring equation (ΔG ^‡ = 31.2 ± 0.3 kcal/mol). (aR)- and (aS )-iso-6 were separable in an analogous fashion using a chiral IC polysaccharide column. […] Thus, we can project that the rotational energy barrier is […] 37 kcal/mol. However, a computationally determined rotational barrier for iso -6 was 33.5 kcal/mol, which is roughly 3 kcal/mol more than that calculated for 6. One potential explanation for this notable difference in configurational stability is the greater double bond character of the methyl-bearing C^4–C^5 carbon of iso -6 in comparison to the C^5–C^6 in 6, as this would both shorten and rigidify this steric-bearing bond (see Scheme A/B for details). […] Studies have previously described differences in rotational barriers of DAAC (2) and its analogous isomer that, while less dramatic, are consistent with this trend (ΔG ^‡ = 22.1 vs 23.4 kcal/mol). […]
IV. Experimental Profiling of Dihedral Angles
Rotational Energy Barrier Determination. A small spatula tip (~0.2 mg) of either (aR)-6 (aka, (aR)-MT-MTC) or (aS)-6 (aka, (aS)-MT-MTC) was diluted in 2 mL o-xylenes in a large vial containing a stir bar. The solution was heated to 135 °C open to air (temperature set to 135 °C, but fluxuated between 134 and 138 °C).
~100 µL aliquots were extracted from solution using a syringe fitted with a long disposable needle at various time intervals and diluted into automated sample vials containing 500 µL CH2Cl2 to rapidly cool. These samples were monitored on Agilent with an analytical HPLC IA column, using 0 – 40% iPrOH in Hexanes gradient over 30 minutes at a flow rate of 0.5 mL/min, and a pressure of roughly 5 bar). Samples eluted approximately 20 minutes into run, with (aR)-6 eluting first, followed by (aS)-6. Three separate runs were carried out, two of which monitored racemization of (aS)-6, and one of which monitored racemization of (aR)- […]
Integration of the HPLC traces were used to determine enantiomeric excess by calculating the difference between the two enantiomers and dividing that by the sum of the two enantiomers, and then multiplying that […]
provided a slope (corresponding to kracemization), and dividing this number […] providing kenantiomerization (or kent in equation below), with units inverse seconds. A summary of data follows (Table S5), and representative chromatograms illustrated in section VI.

[2] = test system: RXF-631; design: method as in NCI-60 database; conditions: RXF-631 ref NCI-60 database, cited from earlier work
[3] = test system: A498; design: method as in NCI-60 database; conditions: A498 ref NCI-60 database, cited from earlier work
[4] = test system: HCC-2998; design: method as in NCI-60 database; conditions: HCC-2998 ref NCI-60 database, cited from earlier work
[5] = test system: U251; design: method as in NCI-60 database; conditions: U251 ref NCI-60 database, cited from earlier work
[6] = test system: K-562; design: method as in NCI-60 database; conditions: K-562 ref NCI-60 database, cited from earlier work
[7] = test system: SK-MEL-5; design: method as in NCI-60 database; conditions: SK-MEL-5 ref NCI-60 database, cited from earlier work
[8] = test system: HT29; design: method as in NCI-60 database; conditions: HT29 ref NCI-60 database, cited from earlier work
[9] = test system: EKVX; design: method as in NCI-60 database; conditions: EKVX ref NCI-60 database, cited from earlier work
[10] = test system: DU-145; design: method as in NCI-60 database; conditions: DU-145 ref NCI-60 database, cited from earlier work
[11] = test system: SR; design: method as in NCI-60 database; conditions: SR ref NCI-60 database, cited from earlier work
[12] = test system: SF-295; design: method as in NCI-60 database; conditions: SF-295 ref NCI-60 database, cited from earlier work

In the case of COc1cc(C)c(-c2ccc(OC)c(=O)cc2C)c(OC)c1OC (single isomer, unassigned) [(aR)-6], the “ΔG‡ of enantiomerization, experimental” value [1] is reported as 31.2 ± 0.3 kcal/mol.

In the case of COc1cc2c(c(OC)c1OC)-c1ccc(OC)c(=O)cc1[C@@H](NC(C)=O)CC2 [Colchicine, (−)-Colchicine], the Log10LC50 [2] is given as greater than -4.00 Molar, the Log10TGI [2] is given as greater than -4.00 Molar and the Log10GI50 ([2]; listed as 757/21) is given as -7.45 Molar. For the same compound, the Log10LC50 [3] was greater than -4.00 Molar, the Log10GI50 ([3]; listed as 757/1) was -6.96 Molar and the Log10TGI ([3]; listed as 757/1) was greater than -4.00 Molar. The Log10TGI ([3]; listed as 757/9) was -5.50 Molar, the Log10GI50 ([3]; listed as 757/21) was -7.68 Molar and -7.40 Molar and the GI50 [4] was 30 nM. For the same compound, the Log10GI50 [4] was -7.51 Molar, the Log10LC50 [4] was greater than -4.00 Molar and the Log10GI50 ([4]; listed as 757/1) was -7.48 Molar. For the same compound, the Log10GI50 ([4]; listed as 757/9) was -7.78 Molar, the Log10TGI ([4]; listed as 757/9) was -7.59 Molar and -7.33 Molar and the GI50 [5] was 30 nM. For the same compound, the Log10GI50 [5] was -7.53 Molar, the Log10GI50 ([5]; listed as 757/1) was -7.38 Molar and the Log10LC50 ([5]; listed as 757/1) was greater than -4.00 Molar. The Log10TGI ([5]; listed as 757/1) was greater than -4.00 Molar, the Log10GI50 ([5]; listed as 757/9) was -7.47 Molar and the Log10LC50 ([5]; listed as 757/21) was -4.31 Molar. The Log10TGI ([5]; listed as 757/21) was -6.89 Molar and -6.80 Molar, the GI50 [6] was 20 nM and the Log10GI50 [6] was -7.79 Molar. The Log10LC50 [6] was greater than -4.00 Molar, the Log10TGI [6] was greater than -4.00 Molar and the Log10GI50 ([6]; listed as 757/1) was -7.47 Molar. The Log10GI50 ([6]; listed as 757/21) was < -8.00 Molar and -7.84 Molar and -7.79 Molar, the GI50 [7] was less than 10 nM and the Log10GI50 [7] was less than -8 Molar. For the same compound, the Log10GI50 ([7]; listed as 757/1) was -7.61 Molar, the Log10TGI ([7]; listed as 757/9) was -7.58 Molar and the Log10GI50 ([7]; listed as 757/21) was less than -8.00 Molar. The Log10LC50 ([7]; listed as 757/21) was greater than -4.00 Molar, the GI50 [8] was 30 nM and the Log10GI50 [8] was -7.55 Molar. For the same compound, the Log10LC50 [8] was greater than -4.00 Molar, the Log10TGI ([8]; listed as 757/1) was -4.61 Molar and the Log10GI50 ([8]; listed as 757/9) was -7.32 Molar. The Log10TGI ([8]; listed as 757/9) was -6.43 Molar, the GI50 [9] was greater than 100000 nM and the Log10GI50 [9] was greater than -4 Molar. For the same compound, the Log10LC50 [9] was greater than -4.00 Molar, the Log10TGI [9] was greater than -4.00 Molar and the Log10GI50 ([9]; listed as 757/21) was greater than -4.00 Molar. The GI50 [10] was 8320 nM, the Log10GI50 [10] was -5.08 Molar and the Log10LC50 [10] was greater than -4.00 Molar. The Log10GI50 ([10]; listed as 757/9) was -7.29 Molar, the Log10TGI ([10]; listed as 757/9) was -5.83 Molar and the Log10GI50 ([10]; listed as 757/21) was -5.08 Molar. For the same compound, the Log10TGI ([10]; listed as 757/21) was greater than -4.00 Molar, the GI50 [11] was 30 nM and the Log10GI50 [11] was -7.49 Molar. For the same compound, the Log10LC50 [11] was greater than -4.00 Molar, the Log10GI50 ([11]; listed as 757/9) was less than -8.00 Molar and the Log10TGI ([11]; listed as 757/9) was -7.47 Molar. For the same compound, the Log10TGI ([11]; listed as 757/21) was greater than -4.00 Molar, the Log10GI50 ([12]; listed as 757/1) was < -8.00 Molar and -7.70 Molar and the Log10LC50 ([12]; listed as 757/1) was -4.51 Molar. For the same compound, the Log10GI50 ([12]; listed as 757/9) was -7.68 Molar and -7.69 Molar, the Log10TGI ([12]; listed as 757/9) was -7.30 Molar and the Log10GI50 ([12]; listed as 757/21) was -7.88 Molar and -7.77 Molar. For the same compound, the Log10LC50 ([12]; listed as 757/21) was greater than -4.00 Molar and the Log10TGI ([12]; listed as 757/21) was -7.39 Molar and -7.37 Molar.
